Each compound was assayed against T1, IRAK4 (Homo sapiens, UniProt Q9NWZ3) (assay: OCI-LY10 IRAK MSD assay DC50 (IRAK4 degradation)). Conditions: OCI-Ly10 cells, incubated for 4 hr, concentration of compound required to degrade 50% of protein.
T1 construct: endogenous in cells; host or cells: OCI-Ly10
T1 sequence (Q9NWZ3 1-460): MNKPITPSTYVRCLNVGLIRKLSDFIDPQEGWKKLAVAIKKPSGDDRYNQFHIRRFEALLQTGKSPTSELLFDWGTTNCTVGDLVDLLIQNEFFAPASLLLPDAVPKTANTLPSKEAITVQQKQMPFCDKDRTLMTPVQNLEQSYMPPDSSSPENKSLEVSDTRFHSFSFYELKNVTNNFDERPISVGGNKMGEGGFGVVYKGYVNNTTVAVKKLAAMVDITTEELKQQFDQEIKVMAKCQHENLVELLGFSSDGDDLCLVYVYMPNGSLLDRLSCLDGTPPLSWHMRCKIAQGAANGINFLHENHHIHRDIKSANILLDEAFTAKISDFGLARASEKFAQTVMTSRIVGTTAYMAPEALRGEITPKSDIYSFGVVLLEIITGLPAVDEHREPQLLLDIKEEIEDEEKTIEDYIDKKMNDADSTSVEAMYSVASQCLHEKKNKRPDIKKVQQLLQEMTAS
Type: cell-based
Procedure: A MSD assay is run to determine the concentration of compound required to degrade 50% of protein (DC50).
• Compounds were reconstituted to 10 mM in stock solutions. The stock solutions were diluted to 5 mM and 45 μL of each dilution was transferred to a 384 pp-plate. A 3 fold, 8-point serial dilution was performed by transferring 15 μL of compound into 30 μL DMSO using Janus. • 20 nL of each compound were added into each well of a 96-well plate (Corning3799). • OCI-Ly10 cells were seeded into the 96-well plate at 3.0*10e^5 cells/100 μL/well. • The cell plate was shaken at 720 rpm for 5 min and incubated for 4 hr. • 100 μL of cells were transferred into the 96-PCR plate and spun down at high speed for 5 mins. • The supernatant was discarded and 100 μL of RIPA lysis buffer with proteinase inhibitors was added per well. The plate was then sealed and shaken at 600 rpm and 4° C. for about 20 min. • The plate was then spun down at high speed (about 3200 g) for 30 min and then frozen in a −80° C. fridge. • A bare MSD plate (L15XA-3) was coated with 2 μg/mL of capture antibody (mouse Anti-IRAK4 antibody [2H9], ab119942) in PBS to 40 μL/well and incubated overnight at 4° C.
• The MSD coated plate was washed 3× (150 μL/well) with 1×TBST (CST #9997S). • The MSD plate was then blocked with 150 μL of blocking buffer [3% Blocker A (MSD, R93BA-4) in TBST]/well and shaken for 1 hr at RT and 600 rpm. • The MSD plate was washed 3× (150 μL/well) with 1×TBST. The sample RIPA lysates were then added to the MSD plate (50 μL/well) and shaken for 1 hr at RT and 600 rpm. • The MSD plate was washed 3× (150 μL/well) with 1×TBST and the primary detection antibody (Rabbit Anti-IRAK4 antibody [Y279], ab32511) was added to a final concentration of 1 μg/ml with 25 μL/well. The plate was then shaken for 1 hr at RT and 600 rpm. • The MSD plate was washed 3× (150 μL/well) with 1×TBST and the secondary detection antibody, SULFO-TAG anti-species antibody (Anti Rabbit Antibody (R32AB-5) MSD, R32AB-1) was added to a volume of 25 μL/well at a final concentration of 1 μg/ml. The plate was then shaken for 1 hr at RT and 600 rpm. • The MSD plate was then washed 3× (150 μL/well) with 1×TBST. • 1×MSD reading buffer was then added (150 μL/well) and the plate […].
(MSD, R92TC-2) • The MSD instrument was then read.
The remaining activity was calculated following the formula below:
• The DC50 was calculated by fitting the Curve using Xlfit (v5.3.1.3), equation 201: […]
The letter codes for IRAK4 DC50 indicate the concentration of compound required to degrade 50% of protein: A (<0.01 μM), B (0.01-0.1 μM), C (>0.1-0.2 μM), D (>0.2 μM).

Row | Structure (SMILES) | DC50 [nM]
1 | N#Cc1cnc2c(C(=O)Nc3ccc4nn([C@H]5CC[C@H](CN6CCC(c7cccn8c(N9CCC(=O)NC9=O)cnc78)CC6)CC5)cc4c3)cnn2c1 [I-65, 6-Cyano-N-[2-[4-[[4-[3-(2,4-dioxohexahydropyrimidin-1-yl)imidazo[1,2-a]pyridin-8-yl]-1-piperidyl]methyl]cyclohexyl]indazol-5-yl]pyrazolo[1,5-a]pyrimidine-3-carboxamide] | 10 to 100
2 | COc1cc2nn([C@H]3CC[C@H](CN4CCCN(c5cccn6c(N7CCC(=O)NC7=O)cnc56)CC4)CC3)cc2cc1NC(=O)c1cccc(C(F)(F)F)n1 [I-47] | 10 to 100
3 | O=C1CCN(c2cnc3cc(C#CCO[C@H]4CCN(C[C@H]5CC[C@H](n6cc(NC(=O)c7cnn8ccc(N9C[C@H]%10C[C@@H]9CO%10)nc78)c(C(F)F)n6)CC5)C[C@H]4F)ccn23)C(=O)N1 [I-71] | < 10
4 | COc1cc2nn([C@H]3CC[C@H](CN4C[C@@H]5C[C@H]4CN5c4ccn5c(N6CCC(=O)NC6=O)cnc5c4)CC3)cc2cc1NC(=O)c1cccc(C(F)(F)F)n1 [I-52] | 10 to 100
5 | O=C1CCN(c2cnc3c(C#CCN4CCN(C[C@H]5CC[C@H](n6cc(NC(=O)c7cnn8ccc(N9C[C@H]%10C[C@@H]9CO%10)nc78)c(C(F)F)n6)CC5)CC4)cccn23)C(=O)N1 [I-60] | < 10
6 | COc1cc2nn([C@H]3CC[C@H](CN(C)C4CCN(c5ccn6c(N7CCC(=O)NC7=O)cnc6c5)CC4)CC3)cc2cc1NC(=O)c1cncc(Cl)c1 [I-87] | 10 to 100
7 | CC(C)Nc1cc(-n2ccc3cc(C#N)cnc32)ncc1C(=O)N[C@H]1CC[C@H](CN2CCC(c3cccn4c(N5CCC(=O)NC5=O)cnc34)CC2)CC1 [I-76] | 10 to 100
8 | COc1cc2nn([C@H]3CC[C@H](CN4C[C@H]5C[C@@H]4CN5c4cccn5c(N6CCC(=O)NC6=O)cnc45)CC3)cc2cc1NC(=O)c1cccc(C(F)(F)F)n1 [I-55] | 10 to 100
9 | COc1cc2nn([C@H]3CC[C@H](CN4CCC(c5ccn6c(N7CCC(=O)NC7=O)cnc6c5)CC4)CC3)cc2cc1NC(=O)c1cc(F)cc(C(F)(F)F)c1 [I-81] | 10 to 100
10 | COc1cc2nc([C@H]3CC[C@H](CN4CCN(c5ccn6c(N7CCC(=O)NC7=O)cnc6c5C)CC4)CC3)sc2cc1NC(=O)c1cccc(C(F)(F)F)n1 [I-50] | 10 to 100
11 | CC(C)Nc1cc(-c2ccc3cc(C#N)cnn23)ncc1C(=O)N[C@H]1CC[C@H](CN2CCC(c3cccn4c(N5CCC(=O)NC5=O)cnc34)CC2)CC1 [I-73] | 10 to 100
12 | COc1cc2nn([C@H]3CC[C@H](CN4C[C@@H]5C[C@H]4CN5c4cccn5c(N6CCC(=O)NC6=O)cnc45)CC3)cc2cc1NC(=O)c1cccc(C(F)(F)F)n1 [I-54] | 10 to 100
13 | COc1cc2nc([C@H]3CC[C@H](CN4CCN(c5ccn6c(N7CCC(=O)NC7=O)cnc6c5OC)CC4)CC3)sc2cc1NC(=O)c1cccc(C(F)(F)F)n1 [I-48] | 10 to 100
14 | C[C@H]1CN(C[C@H]2CC[C@H](n3cc(NC(=O)c4cnn5ccc(N6C[C@H]7C[C@@H]6CO7)nc45)c(C(F)F)n3)CC2)CC[C@@H]1OCC#Cc1cccn2c(N3CCC(=O)NC3=O)cnc12 [I-61] | < 10
15 | COc1cc2nn([C@H]3CC[C@H](CN4C5CCC4CN(c4cccn6c(N7CCC(=O)NC7=O)cnc46)C5)CC3)cc2cc1NC(=O)c1cccc(C(F)(F)F)n1 [I-53] | < 10
16 | COc1cc2nn([C@H]3CC[C@H](CN4CCC(c5cccn6c(N7CCC(=O)NC7=O)cnc56)CC4)CC3)cc2cc1NC(=O)c1cc(F)cc(C(F)(F)F)c1 [I-82] | 10 to 100
17 | O=C1CCN(c2cncc3cc(C4CCN(C[C@H]5CC[C@H](n6cc7cc(NC(=O)c8cccc(C(F)(F)F)n8)ncc7n6)CC5)CC4)ccc23)C(=O)N1 [I-18] | < 10
18 | O=C1CCN(c2cnc3cc(C4CCN(C[C@H]5C[C@H](n6cc7cc(NC(=O)c8cccc(C(F)(F)F)n8)ccc7n6)C5)CC4)ccn23)C(=O)N1 [I-38] | 10 to 100

Row | Structure (SMILES) | DC50 [nM]
19 | COc1cc2nn([C@H]3CC[C@H](CN(C)C4CCN(c5ccn6c(N7CCC(=O)NC7=O)cnc6c5)CC4)CC3)cc2cc1NC(=O)c1cc(F)cc(C(F)(F)F)c1 [I-86] | 10 to 100
20 | CN(C[C@H]1CC[C@H](n2cc3cc(NC(=O)c4cccc(C(F)(F)F)n4)ccc3n2)CC1)C1CCN(c2ccn3c(N4CCC(=O)NC4=O)cnc3c2)CC1 [I-35] | < 10
21 | COc1cc2nn([C@H]3CC[C@H](CN4CCN(c5ccn6c(N7CCC(=O)NC7=O)cnc6c5)CC4)CC3)cc2cc1NC(=O)c1cccc(C(F)(F)F)n1 [I-68] | < 10
22 | COc1cc2nn([C@H]3CC[C@H](CN(C)C4CCN(c5cccn6c(N7CCC(=O)NC7=O)cnc56)CC4)CC3)cc2cc1NC(=O)c1cc(F)cc(C(F)(F)F)c1 [I-43] | 10 to 100
23 | COc1cc2nc([C@H]3CC[C@H](CN4CCC(c5cc(OC)c6ncc(N7CCC(=O)NC7=O)n6c5)CC4)CC3)sc2cc1NC(=O)c1cccc(C(F)(F)F)n1 [I-58] | > 200
24 | C[C@@H]1CN(C[C@H]2CC[C@H](n3cc(NC(=O)c4cnn5ccc(N6C[C@H]7C[C@@H]6CO7)nc45)c(C(F)F)n3)CC2)CC[C@H]1OCC#Cc1cccn2c(N3CCC(=O)NC3=O)cnc12 [I-62] | < 10
25 | N#Cc1cc2nn([C@H]3CC[C@H](CN4CCC(c5cccn6c(N7CCC(=O)NC7=O)cnc56)CC4)CC3)cc2cc1NC(=O)c1cccc(C(F)(F)F)n1 [I-67] | < 10
26 | O=C1CCN(c2cnc3c(C4CCN(C[C@H]5CC[C@H](n6cc7cc(NC(=O)c8cccc(C(F)(F)F)n8)ncc7n6)CC5)CC4)cccn23)C(=O)N1 [I-29] | 10 to 100
27 | CN(C[C@H]1CC[C@H](n2cc3cc(NC(=O)c4cccc(C(F)(F)F)n4)ncc3n2)CC1)C1CCN(c2cccn3c(N4CCC(=O)NC4=O)cnc23)CC1 [I-30] | 100 to 200
28 | O=C1CCN(c2cncc3c(C4CCN(C[C@H]5CC[C@H](n6cc7cc(NC(=O)c8cccc(C(F)(F)F)n8)ccc7n6)CC5)CC4)cccc23)C(=O)N1 [I-10] | 10 to 100
29 | COc1cc2nn([C@H]3CC[C@H](CN4CCC(c5ccn6c(N7CCC(=O)NC7=O)cnc6c5)CC4)CC3)cc2cc1NC(=O)c1cccc(C(F)(F)F)n1 [I-36, N-[2-[4-[[4-[3-(2,4-dioxohexahydropyrimidin-1-yl)imidazo[1,2-a]pyridin-7-yl]-1-piperidyl]methyl]cyclohexyl]-6-methoxy-indazol-5-yl]-6-(trifluoromethyl)pyridine-2-carboxamide] | < 10
30 | COc1cc2nn([C@H]3CC[C@H](CN4CCC(c5ccn6c(N7CCC(=O)NC7=O)cnc6c5)CC4)CC3)cc2cc1NC(=O)c1cncc(C#N)c1 [I-84] | > 200
31 | CN(C[C@H]1CC[C@H](n2cc3cc(NC(=O)c4cccc(C(F)(F)F)n4)ccc3n2)CC1)C1CCN(c2ccc3c(N4CCC(=O)NC4=O)cncc3c2)CC1 [I-19] | 10 to 100
32 | O=C1CCN(c2cnc3cc(C#CCO[C@@H]4CCN(C[C@H]5CC[C@H](n6cc(NC(=O)c7cnn8ccc(N9C[C@H]%10C[C@@H]9CO%10)nc78)c(C(F)F)n6)CC5)C[C@@H]4F)ccn23)C(=O)N1 [I-70] | < 10
33 | CN(C[C@H]1CC[C@H](n2cc3cc(NC(=O)c4cccc(C(F)(F)F)n4)ccc3n2)CC1)C1CCN(c2cccn3c(N4CCC(=O)NC4=O)cnc23)CC1 [I-27] | > 200
34 | COc1cc2nn([C@H]3CC[C@H](CN4C[C@H]5C[C@@H]4CN5c4ccn5c(N6CCC(=O)NC6=O)cnc5c4)CC3)cc2cc1NC(=O)c1cccc(C(F)(F)F)n1 [I-56] | 10 to 100
35 | CN(C[C@H]1CC[C@H](n2cc3cc(NC(=O)c4cccc(C(F)(F)F)n4)ncc3n2)CC1)C1CCN(c2ccn3c(N4CCC(=O)NC4=O)cnc3c2)CC1 [I-33] | < 10

From patent US20250375526A1, “IRAK DEGRADERS AND USES THEREOF” (Kymera Therapeutics, Inc., priority 2020, published 2025)
